Laboratory results reported in patent US11685746B2, “Heteroaryl compounds for treating Huntington's disease” (PTC THERAPEUTICS, INC., priority 2018, dated 2023).

Tested on: Endogenous Huntingtin Protein
Assay: Endogenous Huntingtin Protein Assay (MSD plates, MW1 or MAB2166 capture antibody)
Type: cell-based
Details: Table 1
Procedure: Endogenous Huntingtin Protein Assay
Meso Scale Discovery (MSD) 96-well or 384-well plates were coated overnight at 4° C. with MW1 (expanded polyglutamine) or MAB2166 monoclonal antibody (for capture) at a concentration of 1 μg/mL in PBS (30 μL per well). Plates were then washed three times with 300 μL wash buffer (0.05% Tween-20 in PBS) and blocked (100 μL blocking buffer; 5% BSA in PBS) for 4-5 hours at room temperature with rotational shaking and then washed three times with wash buffer.
Samples (25 μL) were transferred to the antibody-coated MSD plate and incubated overnight at 4° C. After removal of the lysates, the plate was washed three times with wash buffer, and 25 μL of #5656S (Cell signaling; rabbit monoclonal) secondary antibody (diluted to 0.25 μg/mL in 0.05% Tween-20 in blocking buffer) was added to each well and incubated with shaking for 1 Hour at room temperature. Following incubation with the secondary antibody, the wells were rinsed with wash buffer after which 25 μL of goat anti-rabbit SULFO TAG secondary detection antibody (required aspect of the MSD system) (diluted to 0.25 μg/mL in 0.05% Tween-20 in blocking buffer) was added to each well and incubated with shaking for 1 hour at room temperature. After rinsing three times with wash buffer, 150 μL of read buffer T with surfactant (MSD) were added to each empty well, and the plate was imaged on a SI 6000 imager (MSD) according to manufacturers' instructions provided for 96- or 384-well plates.

Structure (SMILES) | IC50
Oc1cc(-c2cn[nH]c2)cnc1-c1nc2sc(N3CC4(CCNCC4)C3)nc2s1 [Compound 209, 2-[5-(2,7-diazaspiro[3.5]nonan-2-yl)[1,3]thiazolo[5,4-d][1,3]thiazol-2-yl]-5-(1H-pyrazol-4-yl)pyridin-3-ol] | ≤ 100 nM
CC1CC(N(C)c2nc3sc(-c4ncc(-c5cn[nH]c5)c5[nH]cnc45)nc3s2)CCN1C (centres unmarked) [Compound 115, N-(1,2-dimethylpiperidin-4-yl)-N-methyl-5-[7-(1H-pyrazol-4-yl)-1H-imidazo[4,5-c]pyridin-4-yl][1,3]thiazolo[5,4-d][1,3]thiazol-2-amine] | ≤ 100 nM
CN(c1nn2c(Cl)c(-c3ccc(-c4cn[nH]c4)cc3O)nc2s1)C1CC(C)(C)NC(C)(C)C1 [Compound 9, 2-{5-chloro-2-[methyl(2,2,6,6-tetramethylpiperidin-4-yl)amino]imidazo[2,1-b][1,3,4]thiadiazol-6-yl}-5-(1H-pyrazol-4-yl)phenol] | 100 to 500 nM
CN(c1nc2sc(-c3ncc(-c4ccnnc4)cc3O)nc2s1)C1CCNCC1 [Compound 225, 2-{5-[methyl(piperidin-4-yl)amino][1,3]thiazolo[5,4-d][1,3]thiazol-2-yl}-5-(pyridazin-4-yl)pyridin-3-ol] | ≤ 100 nM
Cc1cn2cc(-c3nc4sc(C5=CCNCC5)nc4s3)nc2c(C)n1 [Compound 41, 6,8-dimethyl-2-[5-(1,2,3,6-tetrahydropyridin-4-yl)[1,3]thiazolo[5,4-d][1,3]thiazol-2-yl]imidazo[1,2-a]pyrazine] | 100 to 500 nM
CN(c1nc2sc(-c3ncc(-c4cn[nH]c4)cn3)nc2s1)[C@@H]1C[C@H]2CC[C@@H](C1)N2 [Compound 194, N-[(1R,3s,5S)-8-azabicyclo[3.2.1]octan-3-yl]-N-methyl-5-[5-(1H-pyrazol-4-yl)pyrimidin-2-yl][1,3]thiazolo[5,4-d][1,3]thiazol-2-amine] | ≤ 100 nM
CN1CCC(N(C)c2nn3cc(-c4cc(C#N)c5nn(C)cc5c4)nc3s2)CC1 [Compound 31, 2-methyl-5-{2-[methyl(1-methylpiperidin-4-yl)amino]imidazo[2,1-b][1,3,4]thiadiazol-6-yl}-2H-indazole-7-carbonitrile] | 3000 to 9000 nM
CN(c1nc2sc(-c3ncc(-c4cn[nH]c4)cc3O)nc2s1)[C@@H]1C[C@H]2CC[C@@H](C1)N2 [Compound 203, 2-(5-{[(1R,3s,5S)-8-azabicyclo[3.2.1]octan-3-yl](methyl)amino}[1,3]thiazolo[5,4-d][1,3]thiazol-2-yl)-5-(1H-pyrazol-4-yl)pyridin-3-ol] | ≤ 100 nM
Cc1cc(-c2nc3sc(C4CCNCC4)nc3s2)cc2cn(C)nc12 [Compound 16, 2,7-dimethyl-5-[5-(piperidin-4-yl)[1,3]thiazolo[5,4-d][1,3]thiazol-2-yl]-2H-indazole] | ≤ 100 nM
CC1(C)CC(Oc2nc3sc(-c4ncc(-c5cn[nH]c5)c5cc[nH]c45)nc3s2)CCN1 (centres unmarked) [Compound 77, 7-{5-[(2,2-dimethylpiperidin-4-yl)oxy][1,3]thiazolo[5,4-d][1,3]thiazol-2-yl}-4-(1H-pyrazol-4-yl)-1H-pyrrolo[2,3-c]pyridine] | ≤ 100 nM
CCCN1[C@@H]2CC[C@H]1C[C@H](N(C)c1nc3sc(-n4ccc(-c5cn[nH]c5)cc4=O)nc3s1)C2 [Compound 165, 1-(5-{methyl[(1R,3s,5S)-8-propyl-8-azabicyclo[3.2.1]octan-3-yl]amino}[1,3]thiazolo[5,4-d][1,3]thiazol-2-yl)-4-(1H-pyrazol-4-yl)pyridin-2(1H)-one] | ≤ 100 nM
CN(c1nc2sc(-n3ccc(-n4cc(F)cn4)cc3=O)nc2s1)[C@H]1C[C@]2(C)CC[C@](C)(C1)N2 [Compound 148, 1-(5-{[(1R,3s,5S)-1,5-dimethyl-8-azabicyclo[3.2.1]octan-3-yl](methyl)amino}[1,3]thiazolo[5,4-d][1,3]thiazol-2-yl)-4-(4-fluoro-1H-pyrazol-1-yl)pyridin-2(1H)-one] | ≤ 100 nM
COc1cc(-c2cnc(-c3nc4sc(N(C)[C@H]5C[C@]6(C)CC[C@](C)(C5)N6)nc4s3)cn2)ncn1 [Compound 65, N-[(1R,3s,5S)-1,5-dimethyl-8-azabicyclo[3.2.1]octan-3-yl]-5-[5-(6-methoxypyrimidin-4-yl)pyrazin-2-yl]-N-methyl[1,3]thiazolo[5,4-d][1,3]thiazol-2-amine] | 100 to 500 nM
CN(c1nc2sc(-c3ncc(-n4ccnc4)cc3O)nc2s1)C1CCNCC1 [Compound 60, 5-(1H-imidazol-1-yl)-2-{5-[methyl(piperidin-4-yl)amino][1,3]thiazolo[5,4-d][1,3]thiazol-2-yl}pyridin-3-ol] | 1000 to 3000 nM
CN(c1nc2sc(-c3cnc(-c4cn[nH]c4)nc3)nc2s1)[C@@H]1C[C@H]2CC[C@@H](C1)N2 [Compound 175, N-[(1R,3s,5S)-8-azabicyclo[3.2.1]octan-3-yl]-N-methyl-5-[2-(1H-pyrazol-4-yl)pyrimidin-5-yl][1,3]thiazolo[5,4-d][1,3]thiazol-2-amine] | ≤ 100 nM
CN(c1nc2sc(-c3ncc(Br)cc3O)nc2s1)C1CCNCC1 [Compound 57, 5-bromo-2-{5-[methyl(piperidin-4-yl)amino][1,3]thiazolo[5,4-d][1,3]thiazol-2-yl}pyridin-3-ol] | 1000 to 3000 nM
CN(c1nc2sc(-c3cnc(-c4cn[nH]c4)cn3)nc2s1)[C@H]1C[C@]2(C)CC[C@](C)(C1)N2 [Compound 142, N-[(1R,3s,5S)-1,5-dimethyl-8-azabicyclo[3.2.1]octan-3-yl]-N-methyl-5-[5-(1H-pyrazol-4-yl)pyrazin-2-yl][1,3]thiazolo[5,4-d][1,3]thiazol-2-amine] | ≤ 100 nM
CN(c1nc2sc(-c3ccc(-c4cn[nH]c4)c4cc[nH]c34)nc2s1)[C@@H]1C[C@H]2CC[C@@H](C1)N2 [Compound 183, N-[(1R,3s,5S)-8-azabicyclo[3.2.1]octan-3-yl]-N-methyl-5-[4-(1H-pyrazol-4-yl)-1H-indol-7-yl][1,3]thiazolo[5,4-d][1,3]thiazol-2-amine] | ≤ 100 nM
CN(c1nc2sc(-c3ccc(-c4cn[nH]c4)cc3)nc2s1)[C@@H]1C[C@H]2CC[C@@H](C1)N2 [Compound 141, N-[(1R,3s,5S)-8-azabicyclo[3.2.1]octan-3-yl]-N-methyl-5-[4-(1H-pyrazol-4-yl)phenyl][1,3]thiazolo[5,4-d][1,3]thiazol-2-amine] | ≤ 100 nM
Cn1cc2cc(-c3nc4sc(C5CCNCC5)nc4s3)ccc2n1 [Compound 25, 2-methyl-5-[5-(piperidin-4-yl)[1,3]thiazolo[5,4-d][1,3]thiazol-2-yl]-2H-indazole] | 100 to 500 nM
CN(c1nc2sc(-c3cnc(Br)n4ccnc34)nc2s1)C1CCNCC1 [Compound 116, 5-(5-bromoimidazo[1,2-c]pyrimidin-8-yl)-N-methyl-N-(piperidin-4-yl)[1,3]thiazolo[5,4-d][1,3]thiazol-2-amine] | 500 to 1000 nM
C[C@@H]1C[C@@H](N(C)c2nc3sc(-c4ncc(-c5cn[nH]c5)c5cc[nH]c45)nc3s2)CCN1 [Compound 87, N-methyl-N-[(2R,4S)-2-methylpiperidin-4-yl]-5-[4-(1H-pyrazol-4-yl)-1H-pyrrolo[2,3-c]pyridin-7-yl][1,3]thiazolo[5,4-d][1,3]thiazol-2-amine] | ≤ 100 nM
CC1CC(N(C)c2nc3sc(-c4ncc(-c5cn[nH]c5)c5cc[nH]c45)nc3s2)CCN1C (centres unmarked) [Compound 152, N-(1,2-dimethylpiperidin-4-yl)-N-methyl-5-[4-(1H-pyrazol-4-yl)-1H-pyrrolo[2,3-c]pyridin-7-yl][1,3]thiazolo[5,4-d][1,3]thiazol-2-amine] | ≤ 100 nM
COc1cc(-c2nc3sc(C4CCNCC4)nc3s2)cc2cn(C)nc12 [Compound 26, 7-methoxy-2-methyl-5-[5-(piperidin-4-yl)[1,3]thiazolo[5,4-d][1,3]thiazol-2-yl]-2H-indazole] | ≤ 100 nM
CC(C)N1CCC(N(C)c2nc3sc(-c4ncc(-c5cn[nH]c5)cc4O)nc3s2)CC1 [Compound 205, 2-(5-{methyl[1-(propan-2-yl)piperidin-4-yl]amino}[1,3]thiazolo[5,4-d][1,3]thiazol-2-yl)-5-(1H-pyrazol-4-yl)pyridin-3-ol] | ≤ 100 nM
CN(c1nc2sc(-c3ccc(-c4cn[nH]c4)cc3O)nc2s1)[C@H]1CCNC1 [Compound 54, 2-(5-{methyl[(3S)-pyrrolidin-3-yl]amino}[1,3]thiazolo[5,4-d][1,3]thiazol-2-yl)-5-(1H-pyrazol-4-yl)phenol] | ≤ 100 nM
Cc1cn2cc(-c3nc4sc(C5CCNCC5)nc4s3)nc2c(C)n1 [Compound 44, 6,8-dimethyl-2-[5-(piperidin-4-yl)[1,3]thiazolo[5,4-d][1,3]thiazol-2-yl]imidazo[1,2-a]pyrazine] | 1000 to 3000 nM
CN(c1nc2sc(-c3ncc(-c4cn[nH]c4F)cc3O)nc2s1)C1CCNCC1 [Compound 53, 5-(5-fluoro-1H-pyrazol-4-yl)-2-{5-[methyl(piperidin-4-yl)amino][1,3]thiazolo[5,4-d][1,3]thiazol-2-yl}pyridin-3-ol] | ≤ 100 nM
CN(c1nc2sc(-c3ccc(-c4cn[nH]c4)cc3O)nc2s1)[C@H]1CCN[C@@H](CO)C1 [Compound 202, 2-(5-{[(2R,4S)-2-(hydroxymethyl)piperidin-4-yl](methyl)amino}[1,3]thiazolo[5,4-d][1,3]thiazol-2-yl)-5-(1H-pyrazol-4-yl)phenol] | ≤ 100 nM
